As a reminder, the IC50 is the point on the concentration scale where inhibition reaches its midpoint.

Results on 26 compounds are retold here after patent publication US11629154B2, “Tetrahydropyranooxazine derivatives having selective BACE1 inhibitory activity” (SHIONOGI & CO., LTD., priority 2018, dated 2023).

The target of test [1] is recombinant BACE1 protein (Homo sapiens (Human), UniProt P56817). The test can be described thus: BACE1 biochemical FRET based assay. The conditions noted are these: for Selectivity: BACE1 versus BACE2; for IC50: FRET, pH 5.0. The source says: (1) BACE1 Biochemical FRET Based Assay
Sequence of recombinant BACE1 protein (P56817 46-501): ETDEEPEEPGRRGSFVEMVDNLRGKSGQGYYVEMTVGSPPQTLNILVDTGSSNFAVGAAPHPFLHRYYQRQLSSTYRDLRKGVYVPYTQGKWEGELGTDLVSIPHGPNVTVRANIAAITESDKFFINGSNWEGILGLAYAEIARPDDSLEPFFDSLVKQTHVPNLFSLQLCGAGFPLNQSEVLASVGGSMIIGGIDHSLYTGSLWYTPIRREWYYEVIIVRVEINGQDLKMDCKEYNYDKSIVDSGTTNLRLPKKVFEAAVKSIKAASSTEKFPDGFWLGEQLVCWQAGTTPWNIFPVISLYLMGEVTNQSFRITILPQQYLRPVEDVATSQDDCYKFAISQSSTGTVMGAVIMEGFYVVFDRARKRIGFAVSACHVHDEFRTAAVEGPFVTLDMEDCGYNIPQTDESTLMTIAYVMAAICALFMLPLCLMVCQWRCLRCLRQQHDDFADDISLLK
(§1) This assay is a Fluorescence Resonance Energy Transfer Assay (FRET) based assay. The substrate for this assay is an APP derived 13 amino acids peptide that contains the ‘Swedish’ Lys-Met/Asn-Leu mutation of the amyloid precursor protein (APP) beta-site secretase cleavage site. This substrate also contains two fluorophores: (7-methoxycoumarin-4-yl) acetic acid (Mca) is a fluorescent donor with excitation wavelength at 320 nm and emission at 405 nm and 2,4-dinitrophenol (Dnp) is a proprietary quencher acceptor. […] Upon cleavage by BACE1, the fluorophore Mca is separated from the quenching group Dnp, restoring the full fluorescence yield of the donor. The increase in fluorescence is linearly related to the rate of proteolysis.
Briefly in a 384-well format recombinant BACE1 protein in a final concentration of 0.04 μg/mL was incubated for 450 minutes at room temperature with […] substrate in incubation buffer (final concentrations: 33.3 mM Citrate buffer pH 5.0, 0.033% PEG, 3% DMSO) in the absence or presence of compound. Next the amount of proteolysis was directly measured by fluorescence measurement at T=0′-120′ and T=450′ (excitation at 320 nm and emission at 405 nm). Results were expressed in RFU (Relative Fluorescence Units), as difference between T450 and Tx (Tx is chosen depending on the reaction speed between 0 and 120 minutes).
(§2) A best-fit curve was fitted by a minimum sum of squares method to the plot of % Controlmin versus compound concentration. From this an IC50 value (inhibitory concentration causing 50% inhibition of activity) can be obtained.
(§3) LC=Median of the low control values
(§4) =Low control: Reaction without enzyme
(§5) HC=Median of the High control values
=High Control: Reaction with enzyme % Effect=100−[(sample−LC)/(HC−LC)*100] % Control=(sample/HC)*100 % Controlmin=(sample−LC)/(HC−LC)*100

In test [2] the target is recombinant BACE2 protein (Homo sapiens (Human), UniProt Q9Y5Z0). The test can be described thus: BACE2 biochemical FRET based assay. As to conditions: pH 5.0.
Sequence of recombinant BACE2 protein (Q9Y5Z0 63-518): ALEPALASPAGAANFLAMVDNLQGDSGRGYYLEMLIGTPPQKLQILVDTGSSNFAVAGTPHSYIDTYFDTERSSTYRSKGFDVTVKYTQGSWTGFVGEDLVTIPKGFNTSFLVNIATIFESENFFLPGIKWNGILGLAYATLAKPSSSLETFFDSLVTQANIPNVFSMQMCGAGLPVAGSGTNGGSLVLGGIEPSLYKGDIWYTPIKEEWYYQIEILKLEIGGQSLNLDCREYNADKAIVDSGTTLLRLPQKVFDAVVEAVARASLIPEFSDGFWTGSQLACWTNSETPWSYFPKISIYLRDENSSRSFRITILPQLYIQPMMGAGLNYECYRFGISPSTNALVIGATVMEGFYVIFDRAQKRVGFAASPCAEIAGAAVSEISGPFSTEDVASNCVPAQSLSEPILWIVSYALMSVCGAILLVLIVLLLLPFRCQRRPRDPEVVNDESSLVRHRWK
From the text: (2) BACE2 Biochemical FRET Based Assay
as §1, with “assay” for “assay is an APP derived 13 amino acids peptide that”, “beta-secretase” for “beta-site secretase”, “the beta-secretase,” for “BACE1,”
Briefly in a 384-well format recombinant BACE2 protein in a final concentration of 0.4 μg/mL was incubated for 450 minutes at room temperature with 10 μM substrate in incubation buffer (final concentrations: 33.3 mM Citrate buffer pH 5.0, 0.033% PEG, 2% DMSO) in the absence or presence of compound. Next the amount of proteolysis was directly measured by fluorescence measurement at T=0 and T=450 (excitation at 320 nm and emission at 405 nm). Results were expressed in RFU (Relative Fluorescence Units), as difference between T450 and TO.
as §2, §3, §4, §5

With `COc1cnc(C(=O)Nc2ccc(Cl)c([C@@]3(CF)N=C(N)O[C@@H]4C[C@@H](C)OC[C@@H]43)c2)cn1` [Compound I-068], in test [1], the Selectivity worked out at 24.5 and the IC50 was determined as 11.2 nM. For the same compound, in test [2], the IC50 was found to be 275 nM.

For `COc1cnc(C(=O)Nc2ccc(F)c([C@@]3(CF)N=C(N)O[C@@H]4C[C@@H](C)OC[C@@H]43)c2)cn1` [Compound I-069], in test [1], the Selectivity was determined as 123. Also, the figures for the IC50 in test [1] and in test [2] were 11.7 nM and 1440 nM, respectively.

Turning to `CCOc1cnc(C(=O)Nc2ccc(F)c([C@@]3(CF)N=C(N)O[C@@H]4CCOC[C@@H]43)c2)cn1` [Compound I-109], in test [1], the Selectivity is listed as 18.6 and the IC50 came out at 22.4 nM. In test [2], the IC50 turned out to be 417 nM.

For `NC1=N[C@](CF)(c2cc(NC(=O)c3cnc(C(F)(F)F)cn3)ccc2F)[C@H]2COCC[C@H]2O1` [Compound I-107], in test [1], the Selectivity was 63.1 and the IC50 was determined as 53.7 nM. The IC50 in test [2] stood at 3390 nM.

As to `NC1=N[C@](CF)(c2cc(NC(=O)c3cnc(OCF)cn3)ccc2F)[C@H]2[C@H](CF)OCC[C@H]2O1` [Compound I-010], in test [1], the Selectivity is reported as 42.7 and the IC50 came out at 10.7 nM. The IC50 in test [2] was 457 nM.

In the case of `CC[C@@H]1OCC[C@H]2OC(N)=N[C@](CF)(c3cc(NC(=O)c4cnc(OCF)cn4)ccc3F)[C@@H]12` [Compound I-009], in test [1], the Selectivity was determined as 44.7 and the IC50 came out at 15.5 nM. Also, the IC50 in test [2] amounted to 692 nM.

Consider `C[C@@H]1OCC[C@H]2OC(N)=N[C@](CF)(c3cc(NC(=O)c4cnc(OCF)cn4)ccc3F)[C@@H]12` [Compound I-011], for which the Selectivity in test [1] turned out to be 31.6. For the same compound, the IC50 in test [1] is 13.2 nM; in test [2], 417 nM.

Turning to `NC1=N[C@](CF)(c2cc(NC(=O)c3cnc(OCC4(F)CC4)cn3)ccc2F)[C@H]2COCC[C@H]2O1` [Compound I-086], in test [1], the Selectivity is on record as 53.7 and the IC50 was 10 nM. Further, the 50% inhibitory concentration (IC50) in test [2] amounted to 537 nM.

For the compound `NC1=N[C@](CF)(c2cc(NC(=O)c3cnc(OCC(F)(F)F)cn3)ccc2F)[C@H]2COCC[C@H]2O1` [Compound I-077], in test [1], the Selectivity amounted to 223 and the IC50 stood at 8.1 nM. Besides, in test [2], the IC50 amounted to 1820 nM.

With `C[C@@H]1C[C@H]2OC(N)=N[C@](CF)(c3cc(NC(=O)c4cnc(OCF)cn4)cc(F)c3F)[C@H]2CO1` [Compound I-061], the Selectivity in test [1] was 53.7. In addition, the results for the IC50 in test [1] and in test [2] were 17.4 nM and 933 nM, respectively.

`NC1=N[C@](CF)(c2cc(NC(=O)c3ncc(C(F)(F)F)cc3Cl)ccc2F)[C@H]2COCC[C@H]2O1` [Compound I-108]: in test [1], the Selectivity was 10.0. For the same compound, the values for the IC50 in test [1] and in test [2] were 20 nM and 200 nM, respectively.

For the compound `CC[C@@H]1OCC[C@H]2OC(N)=N[C@](CF)(c3cc(NC(=O)c4cnc(OC(F)F)cn4)ccc3F)[C@@H]12` [Compound I-094], in test [1], the Selectivity was determined as 70.8 and the IC50 amounted to 5.9 nM. For the same compound, in test [2], the IC50 amounted to 417 nM.

As for `C[C@@H]1C[C@H]2OC(N)=N[C@](CF)(c3cc(NC(=O)c4cnc(C(F)F)cn4)ccc3F)[C@H]2CO1` [Compound I-088], in test [1], the Selectivity is reported as 11.2 and the IC50 is 55 nM. In addition, the IC50 in test [2] was determined as 617 nM.

`NC1=N[C@](CF)(c2cc(NC(=O)c3cnc(C(F)F)cn3)ccc2F)[C@H]2COCC[C@H]2O1` [Compound I-103]: in test [1], the Selectivity was determined as 14.5 and the IC50 was found to be 21.9 nM. The IC50 in test [2] came to 316 nM.

Take `NC1=N[C@](CF)(c2cc(NC(=O)c3cnc(OCF)cn3)ccc2F)[C@H]2COC3(CC3)C[C@H]2O1` [II-1]: in test [1], the Selectivity is 44.7 and the IC50 stood at 21.9 nM. Besides, in test [2], the IC50 worked out at 977 nM.

For the compound `Cc1cc(C(F)(F)F)cnc1C(=O)Nc1ccc(F)c([C@@]2(CF)N=C(N)O[C@@H]3C[C@@H](C)OC[C@@H]32)c1` [Compound I-100], in test [1], the Selectivity is 15.5 and the IC50 was determined as 16.6 nM. In addition, in test [2], the IC50 came to 257 nM.

For `[2H]C([2H])([2H])Oc1cnc(C(=O)Nc2ccc(F)c([C@@]3(CF)N=C(N)O[C@@H]4CCOC[C@@H]43)c2)cn1` [Compound I-104], in test [1], the Selectivity worked out at 27.5 and the IC50 was found to be 14.5 nM. The IC50 in test [2] was found to be 398 nM.

As to `NC1=N[C@](CF)(c2cc(NC(=O)c3cnc(C(F)(F)F)cn3)ccc2F)[C@H]2COCC[C@H]2O1` [Compound I-102], in test [1], the Selectivity stood at 28.8 and the IC50 is 33.9 nM. For the same compound, in test [2], the IC50 was determined as 977 nM.

Consider `C[C@@H]1C[C@H]2OC(N)=N[C@](CF)(c3cc(NC(=O)c4cnc(OC(F)F)cn4)ccc3F)[C@H]2CO1` [Compound I-089], for which, in test [1], the Selectivity is listed as 56.2 and the IC50 worked out at 9.8 nM. Also, the IC50 in test [2] was 550 nM.

For `Cc1cc(C(F)(F)F)cnc1C(=O)Nc1ccc(F)c([C@@]2(CF)N=C(N)O[C@@H]3CCOC[C@@H]32)c1` [Compound I-106], in test [1], the Selectivity stood at 10.2 and the IC50 came out at 14.2 nM. Also, the IC50 in test [2] is 148 nM.

Turning to `C[C@H]1COC[C@H]2[C@@H]1OC(N)=N[C@]2(CF)c1cc(NC(=O)c2cnc(OCF)cn2)ccc1F` [Compound I-074], in test [1], the Selectivity amounted to 36.3 and the IC50 worked out at 4.3 nM. The IC50 in test [2] stood at 155 nM.

`C[C@@H]1C[C@H]2OC(N)=N[C@](CF)(c3cc(NC(=O)c4ncc(C(F)(F)F)cc4Cl)ccc3F)[C@H]2CO1` [Compound I-101]: the Selectivity in test [1] is recorded as 14.1. Also, the IC50 in test [1] came to 28.2 nM; in test [2], 398 nM.

On to `NC1=N[C@](CF)(c2cc(NC(=O)c3cnc(OCC(F)F)cn3)ccc2F)[C@H]2COCC[C@H]2O1` [Compound I-079], for which, in test [1], the Selectivity amounted to 52.7 and the IC50 is 18.6 nM. Further, in test [2], the IC50 was found to be 1000 nM.

Take `C[C@@H]1COC[C@H]2[C@@H]1OC(N)=N[C@]2(CF)c1cc(NC(=O)c2cnc(OCF)cn2)ccc1F` [Compound I-075]: in test [1], the Selectivity is 27.5. The figures for the IC50 in test [1] and in test [2] were 26 nM and 724 nM, respectively.

Regarding `C[C@@H]1C[C@H]2OC(N)=N[C@](CF)(c3cc(NC(=O)c4ccc(C(F)(F)F)cn4)ccc3F)[C@H]2CO1` [Compound I-099], the Selectivity in test [1] came to 28.8. Besides, the IC50 in test [1] worked out at 19.1 nM; in test [2] it was 550 nM.

As for `NC1=N[C@](CF)(c2cc(NC(=O)c3ccc(OC(F)F)cn3)ccc2F)[C@H]2COCC[C@H]2O1` [Compound I-078], in test [1], the Selectivity is 25.1 and the IC50 amounted to 9.8 nM. Further, the IC50 in test [2] came to 245 nM.
